What was measured:
L132 cells = assay: In vitro cytotoxicity (MTT assay), L132; type: cell-based, human; details: 50% decrease in cell viability
Method: (§1) The in vitro cytotoxicity of the polyamidoamine-platinum compounds was evaluated using the MTT assay described above and in Example 5.
(§2) The cell lines used, L132 (human embryonic lung cells), COR L23 (non-small cell lung cancer cells) and H69 (small cell lung cancer), were obtained from European Collection of Cell Cultures, Centre for Applied Biology, Microbiology and Research, Salisbury, Wiltshire UK.
(§3) Cells were cultured using standard conditions in microtitre plates.

COR-L23 cells = assay: In vitro cytotoxicity (MTT assay), COR-L23; type: cell-based; details: 50% decrease in cell viability
Method: as §1, §2, §3

H69 cells = assay: In vitro cytotoxicity (MTT assay), H69 small cell lung carcinoma; type: cell-based; details: 50% decrease in cell viability
Method: as §1, §2, §3

[1] = tested on: L1210 intraperitoneal tumor; assay: L1210 i.p. tumor model in mice (survival and toxic deaths); type: in vivo, mice (DBA2)
Method: The data in Table 3 is expressed as the ratio of the mean survival time of treated animals to the mean survival time of the untreated control animals×100 (T/C).
10^6 viable cells were administered to DBA2 mice (male 9-12 weeks, 20-30 g) i.p. on day 0. […] Animals were weighed daily and observed twice a day for signs of tumor progression and sacrificed if their body weight fell below 80% of the starting weight or if other severe toxicological problems were seen. At the end of the experiment changes in gross anatomy were noted.

[2] = tested on: B16 melanoma intraperitoneal tumor; assay: B16 melanoma i.p. tumor model in mice (survival, toxic deaths, body weight); type: in vivo, mice (C57BL/6J); details: single i.p. dose
Excerpt: Male C57BL/6J mice were inoculated with 10^6 viable B16F10 cells intraperitoneally (i.p). […] Animals were monitored as described above.

[3] = background; cited from earlier work

N.N.[Cl][Pt][Cl] [Cisplatin, Cis-diamminedichloroplatinum(II)]
IC50, L132 (L132 cells): 4.80 ± 1.29 µg/mL | IC50, COR-L23 (COR-L23 cells): 7.38 ± 2.78 µg/mL | IC50, H-69 (H69 cells): 45.9 ± 20 µg/mL | T/C (mean survival time treated/control × 100) ([1]; 2 mg/kg Pt): 171 | T/C (mean survival time treated/control × 100) ([1]; 3 mg/kg Pt): 64 | T/C ([2]; 5 mg/kg Pt): 134 | T/C ([2]; 10 mg/kg Pt): 78 | excretion, in words [3]: rapid excretion via the kidneys

Source: patent US5985916A, “Polymer-platinum compounds” (Access Pharmaceuticals, Inc., priority 1998, dated 1999)
